Data from patent publication US20060035847A1, “Glucopyranosyloxyprazole derivatives and use thereof in medicines” (KISSEI PHARMACEUTICAL CO., LTD., priority 2000, published 2006).

Key:
[1] = system: ICR mice; assay: Acute toxicity test; format: in vivo; conditions: male ICR mice, oral 2000 mg/kg, observation until 24 hours, 5 animals in each group
Experimental: After 4 week old male ICR mice (Japan SLC. Inc., 20-25 g, 5 animals in each group) were fasted for 4 hours, the suspension (200 mg/mL) prepared by adding of 0.5% sodium carboxymethylcellulose solution to the test compound was orally administered at the dose of 10 mL/kg (2000 mg/kg). Observation was performed until 24 hours after the administration.

[2] = system: SD rats; assay: Assay for the facilitatory effect on urinary glucose excretion; format: in vivo; conditions: glucose load 2 g/kg, 24 hours urine
Experimental: Assay for the Facilitatory Effect on Urinary Glucose Excretion
(§1) As experimental animal, overnight fasted SD rats (Japan SLC. Inc., male, 7 weeks of age, 202-221 g) were used. A Test compound was suspended in 0.5% sodium carboxymethylcellulose solution at the concentration of 2 mg/mL. When homogenous suspension was not obtained in this condition, the test compound was dissolved in ethanol at the concentration of 200 mg/mL of active form and then 2 mg/mL suspension was obtained by adding this solution to 99 times volumes of 0.5% sodium carboxymethylcellulose solution. A part of this suspension was diluted with 0.5% sodium carboxymethylcellulose solution and then 0.6 and 0.2 mg/mL suspensions were prepared. After the body weights of rats were measured, the test suspension was orally administered at the dose of 5 mL/kg (1, 3 and 10 mg/kg). For control, just only 0.5% sodium carboxymethylcellulose solution was orally administered at the dose of 5 mL/kg. Immediately after this oral administration, 400 g/L glucose solution was orally administered at the dose of 5 mL/kg (2 g/kg). The oral administration was performed with gastric tube for rat and 2.5 mL syringe. The head count in one group was 3. Collection of urine was performed in metabolic cage after the glucose administration was finished. The sampling time for collection of urine was 24 hours after the glucose administration. After collection of urine was finished, the urine volume was recorded and the urinary glucose concentration was measured. The glucose concentration was measured with a kit for laboratory test: Glucose B-Test WAKO (Wako Pure Chemical Industries, Ltd.). The amount of urinary glucose excretion in 24 hours per 200 g of body weight was calculated from urine volume, urinary glucose concentration and body weight.
as §1, with “bodyweights” for “body weights”

[3] = system: normal mice; conditions: cited from earlier work
[4] = molecular target: T1, human SGLT2 (Homo sapiens, UniProt P31639, I433V); assay: Assay for inhibitory effect on human SGLT2 activity (methyl-α-D-glucopyranoside uptake in COS-7 cells transiently expressing human SGLT2); format: cell-based
T1 construct: expressed in transfected cells; host or cells: COS-7 cells (RIKEN CELL BANK RCB0539), transient, electroporation
T1 sequence (P31639 1-672 I433V): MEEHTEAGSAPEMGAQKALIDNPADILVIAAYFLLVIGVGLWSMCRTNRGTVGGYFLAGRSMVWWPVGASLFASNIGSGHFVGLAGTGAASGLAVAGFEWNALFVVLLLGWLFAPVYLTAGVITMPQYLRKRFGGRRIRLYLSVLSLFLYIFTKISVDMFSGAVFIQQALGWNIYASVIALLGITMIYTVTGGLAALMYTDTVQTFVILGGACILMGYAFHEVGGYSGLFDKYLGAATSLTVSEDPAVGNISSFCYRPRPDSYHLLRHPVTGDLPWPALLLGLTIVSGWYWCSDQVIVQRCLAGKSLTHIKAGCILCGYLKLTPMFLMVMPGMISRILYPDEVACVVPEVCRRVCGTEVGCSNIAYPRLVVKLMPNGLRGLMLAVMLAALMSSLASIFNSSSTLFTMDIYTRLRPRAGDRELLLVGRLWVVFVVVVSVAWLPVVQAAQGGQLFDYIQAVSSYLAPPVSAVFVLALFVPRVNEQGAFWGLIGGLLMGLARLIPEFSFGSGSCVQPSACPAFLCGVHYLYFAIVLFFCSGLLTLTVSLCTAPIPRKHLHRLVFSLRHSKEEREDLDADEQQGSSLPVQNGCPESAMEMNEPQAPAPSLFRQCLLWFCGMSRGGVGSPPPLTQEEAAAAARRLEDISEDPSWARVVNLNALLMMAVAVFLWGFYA
Experimental: Assay for Inhibitory Effect on Human SGLT2 Activity
1) Construction of the Plasmid Vector Expressing Human SGLT2
Preparation of the cDNA library for PCR amplification was performed by reverse transcription of a total RNA deprived from human kidney (Ori gene) with oligo dT as the primer, using SUPERSCRIPT Preamplification System (Gibco-BRL: LIFE TECHNOLOGIES). The DNA fragment coding for human SGLT2 was amplified by the PCR reaction, in which the human kidney cDNA library described above was used as the template and the following oligo nucleotides 0702F and 0712R, presented as sequence number 1 and 2 respectively, were used as the primers. The amplified DNA fragment was ligated into pCR-Blunt (Invitrogen), a vector for cloning, according to standard method of the kit. The Escherichia coli HB101 was transformed according to usual method and then selection of the transformants was performed on the LB agar medium containing 50 μg/mL of kanamycin. After plasmid DNA was extracted and purified from the one of the transformants, amplifying of the DNA fragment coding for human SGLT2 was performed by the PCR reaction, in which the following oligo nucleotides 0714F and 0715R, presented as sequence number 3 and 4 respectively, were used as the primers. The amplified DNA fragment was digested with restriction enzymes, Xho I and Hind III, and then purified with Wizard Purification System (Promega). This purified DNA fragment was inserted at into the corresponding restriction sites of pcDNA3.1 (−) Myc/His—B (Invitrogen), a vector for expressing of fusion protein. The Escherichia coli HB101 was transformed according to usual method and then selection of the transformant was performed on the LB agar medium containing 100 μg/mL of ampicillin. After plasmid DNA was extracted and purified from this transformant, the base sequence of the DNA fragment inserted at the multi-cloning sites of the vector pcDNA3.1 (−) Myc/His—B was analyzed. […] Sequentially, a clone in which valine is substituted for isoleucine-433 was obtained. This plasmid vector expressing human SGLT2 in which the peptide presented as sequence number 5 is fused to the carboxyl terminal alanine residue was designated KL29.
2) Preparation of the Cells Expressing Transiently Human SGLT2
KL29, the plasmid coding human SGLT2, was transfected into COS-7 cells (RIKEN CELL BANK RCB0539) by electroporation. Electroporation was performed with GENE PULSER II (Bio-Rad Laboratories) under the condition: 0.290 kV, 975 μF, 2×10^6 cells of COS-7 cell and 20 μg of KL29 in 500 μL of OPTI-MEM I medium (Gibco-BRL: LIFE TECHNOLOGIES) in the 0.4 cm type cuvette. After the gene transfer, the cells were harvested by centrifugation and resuspended with OPTI-MEM I medium (1 mL/cuvette). To each well in 96-wells plate, 125 μL of this cell suspension was added. After overnight culture at 37° C. under 5% CO2, 125 μL of DMEM medium which is containing 10% of fetal bovine serum (Sanko Jyunyaku), […] sodium penicillin G (Gibco-BRL: LIFE TECHNOLOGIES), 100 μg/mL streptomycin sulfate (Gibco-BRL: LIFE TECHNOLOGIES) was added to each well. These cells were cultured until the next day and then they were used for the measurement of the inhibitory activity against the uptake of methyl-α-D-glucopyranoside.
3) Measurement of the Inhibitory Activity Against the Uptake of methyl-α-D-glucopyranoside
After a test compounds was dissolved in dimethyl sulfoxide and diluted with the uptake buffer (a pH 7.4 buffer containing 140 mM sodium chloride, 2 mM potassium chloride, 1 mM calcium chloride, 1 mM magnesium chloride, 5 mM methyl-α-D-glucopyranoside, 10 mM 2-[4-(2-hydroxyethyl)-1-piperazinyl]ethane sulfonic acid and 5 mM tris(hydroxymethyl)aminomethane), each diluent was used as test sample for measurement of the inhibitory activity. […]

With `COC(=O)OC[C@H]1O[C@@H](Oc2n[nH]c(C)c2Cc2ccc(OC(C)C)cc2)[C@H](O)[C@@H](O)[C@@H]1O` [Example 48, 4-[(4-Isopropoxyphenyl)methyl]-3-(6-O-methoxycarbonyl-β-D-glucopyranosyloxy)-5-methyl-1H-pyrazole] as the compound, how does the Death number [1] read?
Its Death number is 0/5.

For `CCOC(=O)OC[C@H]1O[C@@H](Oc2nn(C(C)C)c(C)c2Cc2ccc(OC(C)C)cc2)[C@H](O)[C@@H](O)[C@@H]1O` [Example 1, 3-(6-O-Ethoxycarbonyl-β-D-glucopyranosyloxy)-4-[(4-isopropoxyphenyl)methyl]-1-isopropyl-5-methylpyrazole], which “Amount of Urinary Glucose Excretion” value ([2]; oral dose 1 mg/kg) is on record?
The value was 1.6 mg/24 hours · 200 g body weight.

And the “Amount of Urinary Glucose Excretion” value ([2]; oral dose 3 mg/kg)?
Its value is 28.3 mg/24 hours · 200 g body weight.

What about the “Amount of Urinary Glucose Excretion” value ([2]; oral dose 10 mg/kg) of the same compound?
Its value is 127.5 mg/24 hours · 200 g body weight.

Which “amount of excreted glucose” value [3] does the source give for `CSc1ccc(Cc2c(C(F)(F)F)[nH][nH]c2=O)cc1` [WAY-123783, reference compound] here?
The value was “increased”.

What about the “inhibitory activity in human SGLT2 (in words)” value [4] of the same compound?
The value was “extremely weak inhibitory activity”.

What about the IC50 ([4]; inhibition of methyl-α-D-glucopyranoside uptake, COS-7 cells expressing human SGLT2, 37° C., 2 hours) of the same compound?
Its IC50 is > 100 µM.

What does the source list for `COC(=O)OC[C@H]1O[C@@H](Oc2nn(C(C)C)c(C)c2Cc2ccc(OC(C)C)cc2)[C@H](O)[C@@H](O)[C@@H]1O` [Example 15, 4-[(4-Isopropoxyphenyl)methyl]-1-isopropyl-3-(6-O-methoxycarbonyl-β-D-glucopyranosyloxy)-5-methylpyrazole]?
Amount of Urinary Glucose Excretion ([2]; oral dose 1 mg/kg): 1.7 mg/24 hours · 200 g body weight; Amount of Urinary Glucose Excretion ([2]; oral dose 3 mg/kg): 36.8 mg/24 hours · 200 g body weight; Amount of Urinary Glucose Excretion ([2]; oral dose 10 mg/kg): 167.3 mg/24 hours · 200 g body weight
